# Read-outs that look alike come from different tables or passages of the source.
# Assays:
# [1] = molecular target: T1, human androgen receptor (Homo sapiens, UniProt P10275); experiment: Investigation of agonist effects: androgen receptor reporter gene (MMTV-luciferase) assay in 11A11B2 cells; assay type: cell-based; details: compound concentration showing a transcription activity of 5% (0.1 nmol/L DHT = 100%, assay medium alone = 0%), 48 hours
# T1 construct: expressed in transfected cells
# T1 sequence (P10275 1-920): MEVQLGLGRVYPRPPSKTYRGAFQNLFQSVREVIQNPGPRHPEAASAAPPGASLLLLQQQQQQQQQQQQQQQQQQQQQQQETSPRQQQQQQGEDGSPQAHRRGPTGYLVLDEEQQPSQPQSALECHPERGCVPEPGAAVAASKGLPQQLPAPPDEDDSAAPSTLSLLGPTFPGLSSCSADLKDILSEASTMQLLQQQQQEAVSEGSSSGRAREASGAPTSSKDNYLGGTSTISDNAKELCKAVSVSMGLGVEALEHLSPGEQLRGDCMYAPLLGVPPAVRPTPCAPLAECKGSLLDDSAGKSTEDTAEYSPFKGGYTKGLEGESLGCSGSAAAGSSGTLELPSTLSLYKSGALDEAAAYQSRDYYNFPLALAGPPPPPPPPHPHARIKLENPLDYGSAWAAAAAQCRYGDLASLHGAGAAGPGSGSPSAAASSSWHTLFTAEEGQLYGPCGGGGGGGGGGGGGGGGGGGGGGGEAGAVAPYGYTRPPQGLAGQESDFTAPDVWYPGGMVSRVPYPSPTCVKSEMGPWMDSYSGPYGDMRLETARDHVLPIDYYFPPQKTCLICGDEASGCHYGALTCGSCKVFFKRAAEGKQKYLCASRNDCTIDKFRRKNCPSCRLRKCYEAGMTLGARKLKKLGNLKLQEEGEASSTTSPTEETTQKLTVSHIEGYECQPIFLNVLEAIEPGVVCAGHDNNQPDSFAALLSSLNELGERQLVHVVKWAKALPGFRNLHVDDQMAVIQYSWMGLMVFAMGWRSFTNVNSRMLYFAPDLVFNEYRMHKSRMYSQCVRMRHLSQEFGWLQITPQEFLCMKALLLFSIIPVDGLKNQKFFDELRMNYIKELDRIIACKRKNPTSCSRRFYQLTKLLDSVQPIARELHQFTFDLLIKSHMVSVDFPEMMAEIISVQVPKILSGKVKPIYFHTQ
# Method: (§1) HeLa cells (purchased from Dai-Nippon Seiyaku K.K.) were cultured overnight in Dulbecco's Modified Eagle Medium containing no phenol red, but containing 3% charcoal-treated fetal bovine serum (hereafter referred to as DCC-FBS) (this medium is hereafter referred to as phenol-red-free DMEM). An MMTV-Luc-Hyg vector (reporter plasmid with mouse mammary tumor virus long terminal repeat as an androgen response element: vector obtained by substituting the chloramphenicol acetyl transferease gene of a GM-CAT vector (A.T.C.C No. 67282) purchased from the A.T.C.C. with the firefly luciferase gene, and inserting a hygromycin resistance gene as a drug resistance gene), and pSG5-hAR-neo (human androgen receptor expression vector: a vector having an androgen receptor gene under the control of the SV40 promoter, and having a neomycin resistance gene inserted as a drug resistance gene) were transfected into the HeLa cells using an FuGENE™ 6 Transfection Reagent (obtained from Roche).
# (§2) A clone in which transcription activity was elevated in a dose-dependent manner by dihydrotestosterone was obtained by culturing the transfected cells in DMEM containing 500 μg/mL neomycin, 300 μg/mL hygromycin and 10% fetal bovine serum (hereafter referred to as FBS). The clone cells thus obtained (11A11B2 cells) were maintained and propagated using DMEM containing 400 μg/mL neomycin, 200 μg/mL hygromycin and 10% FBS, and were propagated using phenol-red-free DMEM containing 10% DCC-FBS three to four days prior to the performance of an androgen receptor reporter gene assay.
# The 11A11B2 cells were inoculated in a white clear-bottomed 96-well microplate (COSTAR) so that the cell concentration was 1.0×10^4/well, using phenol-red-free DMEM containing 3% DCC-FBS (hereafter referred to as the assay medium), and were cultured overnight. The assay medium containing the compounds of the examples and compounds of the comparative examples were added so that the final concentrations of the compounds of the examples and compounds of the comparative examples were 1, 10, 100, 1,000 and 10,000 nmol/L (however, in the case of the compounds of Examples 1 and 2, the compounds were added so that the final concentrations were […]), and the cells were cultured for 48 hours, after which the transcription activity value was measured. The transcription activity was measured using a Bright-Glo™ Luciferase Assay System (Promega).
# (§3) The transcription activity rates of the compounds of the examples were calculated from the transcription activity measured by the abovementioned method, with the transcription activity value obtained at 0.1 nmol/L DHT taken as 100%, and the transcription activity value in the case of the assay medium alone taken as 0%. The compound concentration showing a transcription activity of 5% (EC5 value) was calculated from a linear equation for two points on either side of 5%.
# [2] = molecular target: androgen receptor (Homo sapiens, UniProt P10275); details: at a concentration of 10 μmol/L; cited from earlier work
# [3] = prostate cancer patients treated with flutamide; cited from earlier work
# [4] = molecular target: T1, human androgen receptor; experiment: Investigation of antagonist effects: androgen receptor reporter gene (MMTV-luciferase) assay in 11A11B2 cells with 0.1 nmol/L DHT; assay type: cell-based
# Method: as §1, §2
# After culturing for 48 hours, the transcription activity values were measured. The transcription activity was measured using a Bright-Glo™ Luciferase Assay System (Promega).
# as §3, with “0%.” for “0%. The compound concentration showing a transcription activity of 5% (EC5 value) was calculated from a linear equation for two points on either side of 5%.”
# Accordingly, the value obtained by subtracting the transcription activity rate of Test Example 1 (Investigation of Agonist Activity) from the transcription activity rate of Test Example 2 (Investigation of Antagonist Activity) was used to calculate the compound concentration at which a transcription activity of 50% was shown (IC50 value). The IC50 value was calculated from a linear equation for two points on either side of 50%.
# [5] = system: castrated rats; details: continuously administered for two weeks; cited from earlier work
# [6] = 11A11B2 cells, 0.1 nmol/L DHT, 48 hours, agonist transcription activity rate of Test Example 1 subtracted, read-out: IC50
SMILES,EC5 [1] [µM],"IC50 [4, 6] [nM]",other results
"CN1C(=S)N(c2ccc(C#N)c(C(F)(F)F)c2)C(=O)C1(C)C [Comparative Example 1, 4-(5-oxo-2-thioxo-3,4,4-trimethyl-1-imidazolidinyl)-2-trifluoromethylbenzonitrile, reference compound]",8e-05,–,–
"CC(=O)NCCN1C(=S)N(c2ccc(C#N)c(C(F)(F)F)c2)C(=O)C1(C)C [Comparative Example 2, 4-[3′-(2″-N-acetylaminoethyl)-4′,4′-dimethyl-5′-oxo-2′-thioxo-1′-imidazolidinyl]-2-trifluoromethylbenzonitrile, reference compound]",3,–,–
"CC(C)(O)C(=O)Nc1ccc([N+](=O)[O-])c(C(F)(F)F)c1 [Comparative Example 4, hydroxyflutamide]",0.01,–,androgen receptor transcription activity [2]: increase; hydroxyflutamide concentration in the blood [3]: several
"CC1(C)C(=O)N(c2ccc(C#N)c(Cl)c2)C(=S)N1CCCS(N)(=O)=O [Example 1, 3-[3-(3-chloro-4-cyanophenyl)-5,5-dimethyl-4-oxo-2-thioxoimidazolidin-1-yl]propane-1-sulfonic acid amide]",>10,–,IC50 [4]: 200 nM
"COc1cc(N2C(=O)C(C)(C)N(CCCS(N)(=O)=O)C2=S)ccc1C#N [Example 2, 3-[3-(4-cyano-3-methoxyphenyl)-5,5-dimethyl-4-oxo-2-thioxoimidazolidin-1-yl]propane-1-sulfonic acid amide]",>10,300,–
"CC1(C)C(=O)N(c2ccc(C#N)c(Cl)c2)C(=S)N1CCCCS(N)(=O)=O [Example 26, 4-[3-(3-chloro-4-cyanophenyl)-5,5-dimethyl-4-oxo-2-thioxoimidazolidin-1-yl]butane-1-sulfonic acid amide]",>10,900,–
"CC1(C)C(=O)N(c2ccc(C#N)c(Cl)c2)C(=S)N1CCCCCS(N)(=O)=O [Example 27, 5-[3-(3-chloro-4-cyanophenyl)-5,5-dimethyl-4-oxo-2-thioxoimidazolidin-1-yl]pentane-1-sulfonic acid amide]",>10,400,–
"CC1(C)C(=O)N(c2ccc(C#N)c(Cl)c2)C(=S)N1CCS(N)(=O)=O [Example 28, 2-[3-(3-chloro-4-cyanophenyl)-5,5-dimethyl-4-oxo-2-thioxoimidazolidin-1-yl]ethane-1-sulfonic acid amide]",>10,400,–
CC(=O)O[C@]1(C(C)=O)CC[C@H]2[C@@H]3C=C(Cl)C4=CC(=O)CC[C@]4(C)[C@H]3CC[C@@]21C [chlormadinone acetate],–,–,weight of the prostate gland [5]: increase
CC(=O)O[C@]1(C(C)=O)CC[C@H]2[C@@H]3C=C(Cl)C4=CC(=O)[C@@H]5C[C@@H]5[C@]4(C)[C@H]3CC[C@@]21C [cyproterone acetate],–,–,weight of the prostate gland [5]: increase

# Source: US7803826B2, “Imidazolidine derivatives” (Chugai Seiyaku Kabushiki Kaisha, priority 2004, dated 2010)
